We go through eleven compounds from patent publication US20240092799A1, “MNK INHIBITORS” (Hepagene Therapeutics (HK) Limited, priority 2020, published 2024).

A value given as a limit tells only on which side of the number the result lay.

For assay [1], the target named is MNK1 (Homo sapiens (Human), UniProt Q9BUB5). Description: MNK Biochemical Enzymatic Assay (ADP-Glo), MNK1 binding assay. Here is the method: MNK Biochemical Enzymatic Assay. This protocol establishes the binding assays for MNK1 and MNK2 using ADP-Glo assay. MNK phosphorylates the substrate and converts ATP to ADP, which was detected by Envision and used to reflect the reminding activity of MNK. Reagents and equipment used in the assay are listed below, followed by the protocol.
Sequence of MNK1 (Q9BUB5 other isoform, or with tags, fused parts or gaps isoform Q9BUB5-2): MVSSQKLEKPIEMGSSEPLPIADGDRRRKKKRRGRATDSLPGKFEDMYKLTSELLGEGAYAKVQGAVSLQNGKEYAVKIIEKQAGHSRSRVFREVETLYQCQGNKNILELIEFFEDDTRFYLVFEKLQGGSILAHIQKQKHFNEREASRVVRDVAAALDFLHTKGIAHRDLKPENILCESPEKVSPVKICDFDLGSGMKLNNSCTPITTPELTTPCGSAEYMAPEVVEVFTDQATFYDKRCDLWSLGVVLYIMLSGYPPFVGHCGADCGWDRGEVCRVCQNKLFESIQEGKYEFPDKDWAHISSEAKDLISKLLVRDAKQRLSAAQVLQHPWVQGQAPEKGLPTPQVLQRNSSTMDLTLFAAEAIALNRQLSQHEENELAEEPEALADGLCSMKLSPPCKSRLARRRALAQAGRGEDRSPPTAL
• a) Add 50 μL compound to 384-well dilution plate • b) Dilute compound 1:3 in succession in DMSO for each column for 10+0 pts (refer to dilution plate map) • c) Transfer 0.1 μL diluted compound solution in each row to 384 assay plate using Echo, each column containing 2 replicates (refer to assay plate map) • d) Add 5 μL enzyme working solution to 384-well assay plate, centrifuge 1000 RPM for 1 min • e) Incubate at 25° C. for 15 min • f) Add 5 μL substrate working solution to initiate reaction • g) Incubate at 25° C. for 60 min • h) Add 10 μL ADP Glo reagent, centrifuge 1000 RPM for 1 min • i) Incubate at 25° C. for 60 min • j) Add 20 μL kinase detection reagent, centrifuge 1000 RPM for 1 min • k) Incubate at 25° C. for 60 min • l) Read on Envision for US LUM as RLU • m) Data analysis: IC50s were determined based on a non-linear regression analysis of data collected.

Assay [2] deals with MNK2 (Homo sapiens (Human), UniProt Q9HBH9). The experiment in a line: MNK Biochemical Enzymatic Assay (ADP-Glo), MNK2 binding assay. In a few lines: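 Human MNK1 or MNK2 was preincubated with a 10-point, 1:3 serial dilution of compound for 15 min at 25 °C. Substrate was then added and the reaction ran 60 min at 25 °C. ADP formed was read by ADP-Glo luminescence, and IC50 came from non-linear regression.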
Sequence of MNK2 (Q9HBH9 whole entry): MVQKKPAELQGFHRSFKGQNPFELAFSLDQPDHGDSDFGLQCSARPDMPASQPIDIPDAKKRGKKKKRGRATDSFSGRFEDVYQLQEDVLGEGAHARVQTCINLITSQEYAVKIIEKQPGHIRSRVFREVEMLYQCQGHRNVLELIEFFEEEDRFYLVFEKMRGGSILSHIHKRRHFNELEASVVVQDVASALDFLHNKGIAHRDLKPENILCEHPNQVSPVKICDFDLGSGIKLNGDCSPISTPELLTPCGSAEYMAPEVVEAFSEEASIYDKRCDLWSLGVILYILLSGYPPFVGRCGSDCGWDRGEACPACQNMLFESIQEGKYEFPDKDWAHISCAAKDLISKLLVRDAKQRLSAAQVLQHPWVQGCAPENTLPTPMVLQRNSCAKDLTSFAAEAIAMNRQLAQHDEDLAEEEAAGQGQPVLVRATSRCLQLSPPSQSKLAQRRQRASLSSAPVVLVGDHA

Assay [3] concerns TMD-8 cell p-IF4E. The experiment in a line: p-eIF4E Signaling Cellular Assay (CisBio HTRF) in TMD-8 cells. The class given is cell-based. Conditions: Homo sapiens, TMD8, 40 min, 40 min treatment. An outline of the steps: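 TMD-8 cells (20 k/well, exponential phase, RPMI 1640 + 10% FBS) treated with compound for 40 min at 37 °C, then lysed for 30 min and incubated overnight at RT with HTRF antibodies. 665/620 nm ratio converted to % inhibition vs controls; IC50 from variable-slope nonlinear fit.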

On to `Cc1cc(Nc2cc(N)ncn2)c(=O)n2c1C(=O)N[C@@]21C[C@H]2CC[C@@H]1C2` [Compound IIb, (1R,2S,4S)-6′-((6-aminopyrimidin-4-yl)amino)-8′-methyl-2′H-spiro[bicyclo[2.2.1]heptane-2,3′-imidazo[1,5-a]pyridine]-1′,5′-dione], for which the IC50 in assay [1] and in assay [2] was 0.1 to 10 nM each time.
`Nc1cc(Nc2c3c(c4n(c2=O)C2(CCCCC2)NC4=O)CCC3)ncn1` [Compound I, 6′-((6-Aminopyrimidin-4-yl)amino)-8′,9′-dihydrospiro[cyclohexane-1,3′-cyclopenta[c]imidazo[1,5-a]pyridine]-1′,5′(2′H,7′H)-dione]: the IC50 in assay [1] and in assay [2] was over 1000 nM each time.
In the case of `Cc1cc(Nc2cc(N)ncn2)c(=O)n2c1C(=O)N[C@]21C[C@H]2CC[C@@H]1C2` [Compound IIa, (1R,2R,4S)-6′-((6-Aminopyrimidin-4-yl)amino)-8′-methyl-2′H-spiro[bicyclo[2.2.1]heptane-2,3′-imidazo[1,5-a]pyridine]-1′,5′-dione], the 50% inhibitory concentration (IC50) in assay [1] and in assay [2] was 0.1 to 10 nM each time.
Regarding `Nc1cc(Nc2c(=O)n3c(c4ccccc24)C(=O)NC32CCCCC2)ncn1` [Compound III, 6′-((6-Aminopyrimidin-4-yl)amino)-2′H-spiro[cyclohexane-1,3′-imidazo[5,1-a]isoquinoline]-1′,5′-dione], the IC50 in assay [1] and in assay [2] was over 1000 nM throughout.
With `Cc1cc(Nc2cc(Nc3ccc(N4C[C@@H](C)N[C@@H](C)C4)cn3)ncn2)[n+]([O-])c2c1C(=O)NC21CCCCC1` [Compound XXIX-AAN, 2′-((6-((5-(cis-3,5-dimethylpiperazin-1-yl)pyridin-2-yl)amino)pyrimidin-4-yl)amino)-4′-methyl-5′-oxo-5′,6′-dihydrospiro[cyclohexane-1,7′-pyrrolo[3,4-b]pyridine]1′-oxide], the IC50 in assay [3] and in assay [2] was 0.1 to 10 nM each time.
Regarding `Cn1cc(Nc2cc(Nc3cc4c(s3)C(=O)NC43CCCCC3)ncn2)cn1` [Compound XXIV-K, 2′-((6-((1-methyl-1H-pyrazol-4-yl)amino)pyrimidin-4-yl)amino)spiro[cyclohexane-1,4′-thieno[2,3-c]pyrrol]-6′(5′H)-one], the IC50 in assay [3] lay within 100 to 1000 nM; in assay [2], 0.1 to 10 nM.
The like results for `O=C1NC2(CCCCC2)c2cc(Nc3cc(Nc4cc[nH]n4)ncn3)sc21` [Compound XXIII-U, 2′-((6-((1H-pyrazol-3-yl)amino)pyrimidin-4-yl)amino)spiro[cyclohexane-1,4′-thieno[2,3-c]pyrrol]-6′(5′H)-one] were, in that order, 10 to 100 nM and 0.1 to 10 nM.
On to `Cc1cc2c(Nc3cc4c(s3)C(=O)NC43CCCCC3)ncnc2[nH]1` [Compound XVII-C, 2′-((6-methyl-7H-pyrrolo[2,3-d]pyrimidin-4-yl)amino)spiro[cyclohexane-1,4′-thieno[2,3-c]pyrrol]-6′(5′H)-one], for which the IC50 in assay [3] lay within 10 to 100 nM; in assay [2], 0.1 to 10 nM.
As to `CCN1CCN(c2ccc(Nc3cc(Nc4cc(C)c5c([n+]4[O-])C4(CCCCC4)NC5=O)ncn3)nc2)CC1` [Compound XXIX-AAO, 2′-[(6-{[5-(4-ethylpiperazin-1-yl)pyridin-2-yl]amino}pyrimidin-4-yl)amino]-4′-methyl-5′-oxo-6′H-spiro[cyclohexane-1,7′-pyrrolo[3,4-b]pyridin]-1′-ium-1′-olate], the IC50 in assay [3] and in assay [2] was 0.1 to 10 nM throughout.
Take `Cc1cc(Nc2cc(Nc3ccc(N4CCN(C)CC4)cn3)ncn2)[n+]([O-])c2c1C(=O)NC21CCCCC1` [Compound XXIX-AO, 4′-methyl-2′-[(6-{[5-(4-methylpiperazin-1-yl)pyridin-2-yl]amino}pyrimidin-4-yl)amino]-5′-oxo-5′,6′-dihydrospiro[cyclohexane-1,7′-pyrrolo[3,4-b]pyridin]-1′-ium-1′-olate]: the IC50 in assay [3] and in assay [2] was 0.1 to 10 nM in each case.
As to `CN1CCN(c2ccc(Nc3cc(Nc4cc5c(s4)C(=O)NC54CCCCC4)ncn3)nc2)CC1` [Compound XXIII-T, 2′-((6-((5-(4-methylpiperazin-1-yl)pyridin-2-yl)amino)pyrimidin-4-yl)amino)spiro[cyclohexane-1,4′-thieno[2,3-c]pyrrol]-6′(5′H)-one], the IC50 lay in the range of 10 to 100 nM in assay [3] and 0.1 to 10 nM in assay [2].
